Results published in patent publication EP4796540A2, “N-SULFONAMIDE NITROGEN-CONTAINING FUSED HETEROCYCLIC COMPOUND, AND APPLICATION THEREOF” (priority 2023, dated 2025).
Several values for one entry are separate records, joined by “and”; a condition that tells them apart may be missing. Equal entries are not always repeated.

How the values were obtained:
[1] = test system: p53 Y220C mutant; test: HTRF assay: compounds promoting the binding of p53 Y220C mutant with DNA; format: biochemical; settings: His-tagged p53 Y220C (94-312), biotin-labeled DNA
Protocol: Homogeneous time-resolved fluorescence (HTRF) assay was used to measure the reactivation effect of compounds on the p53 Y220C mutant. The recombinant His-tagged p53 Y220C (94-312) used for HTRF assays was expressed in E. coli and purified to the purity of 90% through Ni-NTA column. The biotin-labeled DNA used for HTRF assays was synthesized by Pharmaron Inc, with the specific sequence of 5'-[…]-3' .
The binding of recombinant His-tagged p53 Y220C protein and biotin-labeled DNA was measured using fluorescence resonance energy transfer (FRET). For FRET assays, binding between p53 mutants and DNA sequences was measured by detecting the fluorescence of the interaction between an anti-His antibody (Cisbio, 61HI2KLA) conjugated to Eu and d2-conjugated streptavidin (Cisbio, 610SADLF) bound to a biotin-labeled DNA molecule. Compounds were prepared into 2 mM stock solutions and serially diluted into 10 concentrations at a 1:3 ratio in DMSO. Each 200-fold working concentration compound was sequentially diluted to 4-fold working concentration. 4 µL of compound solution was transferred line by line to a 384-well assay plate using Echo, containing 2 replicates per column. 4 µL of p53 solution was added to the assay plate. 4 µL of biotin DNA solution was added to the assay plate, and then 4 µL of assay solution (His-Eu antibody and streptavidin-d2) was added to each well of the assay plate. The assay plate was incubated overnight and protected from light. Fluorescence was read on BMG (BMG LRBTECH).
The ratio of each well was calculated (ratio_665 nm/615 nm-ratio_background). The activity % was calculated as follows: C = (Ave_Ac−Ave_Ba)/(Ave_Dc_Ave_Bd) [formula] R data = (A−Ave_Ba−C*D)/(D−Ave_Bd)*(Ave_Dc−Ave_Bd) [formula] Activity % = R data/Ave_VC*100. [formula] • A: fluorescence intensity of the sample at 665 nm; • D: fluorescence intensity of the sample at 615 nm; • Ba: fluorescence intensity of the plate background at 665 nm; • Bd: fluorescence intensity of the plate background at 615 nm; • Dc: fluorescence intensity of HIS-Eu background at 615 nm; • Ac: fluorescence intensity of streptavidin-d2 background at 665 nm; • VC: DMSO treatment group.
SC150 was calculated using Graphpad 8.0 to fit the logarithm of activity% and compound concentration to a nonlinear regression (dose response-variable slope). Table 1: Activity of compounds promoting the binding of p53 Y220C mutant with DNA

[2] = test system: human gastric cancer NUGC-3 xenograft; test: In vivo efficacy study in human gastric cancer NUGC-3 xenograft mouse model; parameters: species or system NUNU mice; settings: mice; for Tumor volume (mm^3) (at 19 days): Mean ± SEM
Protocol: 1. Experimental purpose: To test the in vivo anti-tumor activity of compounds in the subcutaneous human gastric cancer NUGC-3 xenograft model in female NUNU mice. 2. Experimental materials: Animals: 6 to 8 weeks old female NUNU mice; Reagents:
Cpd-A vehicle: 0.2% HPC, 0.5% Tween80 in water (w/v/v); Cpd-2 vehicle: 5% DMSO/10% Solutol HS 15/85% pH 4.65 ± 0.10 acetate buffer.
Cell culture: NUGC-3 cells were cultured in RPMI-1640 medium containing 10% FBS.
Molding and grouping: NUGC-3 cells in the exponential growth phase (5 × 10^6) were harvested, resuspended in 0.2 mL of PBS and Matrigel (1:1), and then inoculated subcutaneously into the right flank of NUNU mice to establish a subcutaneous xenograft model. Mice were observed daily for healthy status and tumor growth after cell inoculation. On the 5th day after inoculation, 36 animals were selected, grouped, and the tumor volume of the animals in the group was approximately 150.0 mm^3. The study was divided into 6 groups, with 6 mice in each group, and the administration was performed on the same day (see Table 10).
4. Experimental design: Table 10 is the grouping and administration information for the efficacy experiment. Mice in the G1 group were orally administered vehicle control (5% DMSO/10% Solutol HS 15/85% pH 4.65 ± 0.10 acetate buffer) once a day for a total of 19 days. Mice in the G2 group were orally administered Cpd-A once a day at a dose of 50 mg/kg for a total of 19 days. Mice in the G3 group were orally administered Cpd-A once a day at a dose of 100 mg/kg for a total of 19 days. Mice in the G4 group were orally administered Cpd-2 once a day at a dose of 25 mg/kg for a total of 19 days. Mice in the G5 group were orally administered Cpd-2 once a day at a dose of 50 mg/kg for a total of 19 days. Mice in the G6 group were orally administered Cpd-2 once a day at a dose of 100 mg/kg for a total of 19 days. Table 10. In vivo efficacy study design of NUGC-3 xenograft mouse model
Experimental observation: The health status and mortality of the animals were monitored daily. Routine checks included observing the effect of tumor growth and drug treatment on animals' normal behavior such as mobility, food and water consumption, body weight gain/loss, eye/hair matting and any other abnormal effect. The number of deaths and side effects of the animals in the group were recorded based on the number of the animals in each group. Clinical symptoms observed during the trial were recorded in the raw data. Tumor volume calculation formula: Tumor volume (mm^3) = 0.5 × (tumor long diameter × tumor short diameter^2). During the research process, the entire administration process as well as tumor and body weight measurements were conducted in a Laminar Flow Cabinet.
Statistical analysis: Tumor volume and animal body weight results are expressed in Mean ± SEM. Tumor volumes between different groups were statistically compared and analyzed. All statistical analyses were completed in GraphPad Prism 8.0. The one-way ANOVA method was used to compare whether there was a significant difference in tumor volume or tumor weight between groups, where p ≥ 0.05 was considered as having no significant difference, p < 0.05 was considered as having a significant difference, and p < 0.001 was considered as having an extremely significant difference.

## [2H]C([2H])([2H])Oc1nc(C(=O)NS(C)(=O)=O)ccc1NCC#Cc1cc2c(N[C@@H]3CCN(C)C[C@@H]3F)cccn2c1CC(F)(F)F [Cpd-2, 5-((3-(8-(((3S,4R)-3-Fluoro-1-methylpiperidin-4-yl)amino)-3-(2,2,2-trifluoroethyl)indolizin-2-yl)prop-2-yn-1-yl)amino)-6-(methoxy-d3)-N-(methylsulfonyl)picolinamide]
[1]
  SC150: 0.58 nM
[2]; 25 mg/kg PO QD*19 Days
  TGI (%) (at 19 days): 65.1%
  Tumor volume (mm^3) (at 19 days): 615.1 mm^3 and 615.1 ± 157.6 mm^3
[2]; 50 mg/kg PO QD*19 Days
  TGI (%) (at 19 days): 96.1%
  Tumor volume (mm^3) (at 19 days): 202.2 mm^3 and 202.2 ± 57.9 mm^3
[2]; 100 mg/kg PO QD*19 Days
  TGI (%) (at 19 days): 103.6%
  Tumor volume (mm^3) (at 19 days): 102.5 mm^3 and 102.5 ± 42.1 mm^3
